Values of other authors, collected in patent US9233176B2, “Systems and method of delivering fluids to a patient of varying concentration” (Bayer HealthCare LLC, priority 2006, dated 2016).
Read-outs that look alike come from different tables or passages of the source.

iodine flux rate (300 mg I/ml solution, application flow rate 8 ml/s): 2400 mg I/s | iodine flux rate (370 mg I/ml solution, application flow rate 6 ml/s): 2220 mg I/s
SMILES: COCC(=O)Nc1c(I)c(C(=O)NCC(O)CO)c(I)c(C(=O)N(C)CC(O)CO)c1I (centres unmarked) [Iopromide]
